# Measured values: patent publication US11166924B2, “N-methyl-d-aspartate receptor allosteric modulators and methods for their use” (Qingdao Primedicine Pharmaceutical Company, Ltd., priority 2016, dated 2021)
# Assays:
# GluN1 or GluN2A mutants = test: Patch clamp in HEK293 cells, another 8 mutations within the defined pocket (summary); assay type: cell-based, rat
# Protocol: Whole cell patch-clamp recordings were performed under voltage-clamp mode using an Axopatch 200B or 1D patch-clamp amplifier (Molecular Devices). Whole-cell currents were recorded at a holding potential of −60 mV unless indicated elsewhere, and signals were filtered at 2 kHz, digitized at 10 kHz (Digidata 1322A). Recording pipettes (3-5 MΩ) were filled with intracellular solution containing (mM): CsCl 140, HEPES 10, Mg-ATP 4, QX-314 5, pH 7.20; osmolarity, 290-295 mOsm. BAPTA (10 mM) was added in the intracellular solution (unless otherwise specified). The coverslips were continuously superfused with extracellular solution containing (mM): NaCl 140, KCl 5.4, HEPES 10, CaCl2 1.3, glucose 20, pH 7.4; osmolarity, 305-315 mOsm. NMDA-induced currents were applied by NMDA through perfusion fast-step (Warner Instruments). With perfusion fast-step system, NMDA application was achieved by using a two-square barrel glass tubing and depending on the age of the cultured neurons, CNQX (10 μM), TTX (0.5 μM) or BIC (10 μM) were added in the extracellular solution to minimize the activation of ionotropic glutamate receptors and voltage-gated sodium channels, respectively. All experiments were performed at room temperature. Recordings from at least six HEK293 cells/neurons were performed for all active compounds. […]
# AMPAR = test: AMPA-induced currents in cultured hippocampal neurons; assay type: cell-based
# Protocol: Whole cell patch-clamp recordings were performed under voltage-clamp mode using an Axopatch 200B or 1D patch-clamp amplifier (Molecular Devices). Whole-cell currents were recorded at a holding potential of −60 mV unless indicated elsewhere, and signals were filtered at 2 kHz, digitized at 10 kHz (Digidata 1322A). Recording pipettes (3-5 MΩ) were filled with the intracellular solution that contained (mM): CsCl 140, HEPES 10, Mg-ATP 4, QX-314 5, pH 7.20; osmolarity, 290-295 mOsm. BAPTA (10 mM) was added in the intracellular solution (otherwise specified). The coverslips were continuously superfused with the extracellular solution containing (mM): NaCl 140, KCl 5.4, HEPES 10, CaCl2 1.3, glucose 20, pH 7.4; osmolarity, 305-315 mOsm. NMDA, GABA or AMPA induced currents were either applied by NMDA, GABA, AMPA either through perfusion fast-step (Warner Instruments). […]
# Next, the inventor evaluated the selectivity profile for Npam02 on two other key ionotropic receptors of the central nervous system (CNS): α-amino-3-hydroxy-5-methyl-4-isoxazolepropionic acid receptor AMPAR, which are known to be a non-NMDA type ionotropic transmembrane receptor for glutamate that mediates fast synaptic transmission in the central nervous system (CNS) and GABA receptors which are the principal inhibitory ligand-gated ion channel receptor. […]
SMILES,Reduction in potentiation (GluN1 or GluN2A mutants),Effect on AMPAR mediated currents (AMPAR)
"CCOc1cc(Cl)c(Cl)c(/C=N/NC(=O)c2ccccc2Br)c1O [Npam43, (E)-2-bromo-N′-(2,3-dichloro-5-ethoxy-6-hydroxybenzylidene)benzohydrazide]",10-62%,–
"COc1cccc(/C=N/NC(=O)c2ccccc2C)c1O [Npam02, (E)-N′-(2-hydroxy-3-methoxybenzylidene)-2-methylbenzohydrazide]",–,no observable effects
